Assay results reported in PubChem BioAssay AID1259411 (Chemical Carcinogenesis Research Information System (CCRIS), 2018).
Activity calls are given as the source filed them. How the calls were made is not given here.

Tested on: rodent carcinogenicity bioassays, tumor incidence
Experiment: CCRIS carcinogenicity studies
In short: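 NCI-built, expert-reviewed records of carcinogenicity and related test outcomes (mutagenicity, tumor promotion/inhibition) compiled from published and report sources, historical span 1985-2011, not updated.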

CCN=c1cc2oc3cc(NCC)c(C)cc3c(-c3ccccc3C(=O)OCC)c-2cc1C
carcinogen call (Species: MOUSE, Strain/Sex: B6C3F1/FEMALE, Route: ORAL, Dose: 0, 500, 1000 PPM IN FEED FOR 103 WK (STUDY DURATION: 105 WK), Dose: 0, 500, 1000 PPM IN FEED FOR 103 WK (STUDY DURATION: 105 WK)): inactive; negative | carcinogen call (Species: MOUSE, Strain/Sex: B6C3F1/MALE, Route: ORAL, Dose: 0, 1000, 2000 PPM IN FEED FOR 103 WK (STUDY DURATION: 105 WK), Dose: 0, 1000, 2000 PPM IN FEED FOR 103 WK (STUDY DURATION: 105 WK)): inactive; negative | carcinogen call (Species: RAT, Strain/Sex: F344/FEMALE, Route: ORAL, Dose: 0, 120, 250 PPM IN FEED FOR 103 WK (STUDY DURATION: 105 WK), Dose: 0, 120, 250 PPM IN FEED FOR 103 WK (STUDY DURATION: 105 WK), Tumor Site: Type of Lesion: ADRENAL GLAND: PHEOCHROMOCYTOMA OR MALIGNANT PHEOCHROMOCYTOMA): equivocal | carcinogen call (Species: RAT, Strain/Sex: F344/MALE, Route: ORAL, Dose: 0, 120, 250 PPM IN FEED FOR 103 WK (STUDY DURATION: 105 WK), Dose: 0, 120, 250 PPM IN FEED FOR 103 WK (STUDY DURATION: 105 WK), Tumor Site: Type of Lesion: INTEGUMENTARY SYSTEM: KERATOACANTHOMA): equivocal

CC(=O)N[C@@H](C=O)[C@@H](O)[C@H](O)[C@H](O)CO
carcinogen call (Species: Rat, Strain/Sex: F344/Female, Route: Oral, Dose: 0, 2.5, 5% in diet for 104 wk): inactive; negative | carcinogen call (Species: Rat, Strain/Sex: F344/Male, Route: Oral, Dose: 0, 2.5, 5% in diet for 104 wk): inactive; negative

CCCCN(N=O)C(=O)CCC(=O)OCC
carcinogen call (Species: RAT, Strain/Sex: F344/MALE,FEMALE, Route: SUBCUTANEOUS, Dose: 38 UMOL/KG IN OLIVE OIL 1/WK FOR 10 WK, Tumor Site: Type of Lesion: INJECTION SITE: MALIGNANT FIBROUS HISTIOCYTOMA): active; positive

C[C@]12CC[C@@H]3c4ccc(O)cc4CC[C@H]3[C@@H]1C[C@@H](O)[C@@H]2O
carcinogen call (Species: HAMSTER, Route: SUBCUTANEOUS IMPLANT, Tumor Site: Type of Lesion: KIDNEY): active; positive | carcinogen call (Species: HUMAN, Tumor Site: Type of Lesion: UTERUS (ENDOMETRIUM)): active; positive | carcinogen call (Species: MOUSE, Route: SUBCUTANEOUS IMPLANT, Tumor Site: Type of Lesion: MAMMARY GLAND): active; positive

CCC(C)OC(OC(C)CC)C(=O)c1ccccc1 (configuration not stated)
carcinogen call (Species: MOUSE, Strain/Sex: C3H/HEJ/MALE, Route: DERMAL, Dose: 0, 22.4 MG UNDILUTED 3/WK FOR LIFESPAN (STUDY DURATION: LIFESPAN)): inactive; negative

Cc1ccc(S(=O)(=O)Oc2ccc(N=Nc3ccc(-c4ccc(N=Nc5c(O)ccc6cc(S(=O)(=O)O)cc(S(=O)(=O)O)c56)c(C)c4)cc3C)cc2)cc1
carcinogen call (Species: RAT, Strain/Sex: F344/FEMALE, Route: ORAL, Dose: 0, 150, 300, 600 PPM IN DRINKING WATER 7 D/WK FOR 104 WK (STUDY DURATION: 104 WK), Dose: 0, 150, 300, 600 PPM IN DRINKING WATER 7 D/WK FOR 104 WK (STUDY DURATION: 104 WK), Tumor Site: Type of Lesion: CLITORAL GLAND: ADENOMA OR CARCINOMA, LIVER: NEOPLASTIC NODULE OR HEPATOCELLULAR CARCINOMA, LUNG: ALVEOLAR/BRONCHIOLAR A, Tumor Site: Type of Lesion: CLITORAL GLAND: ADENOMA OR CARCINOMA, LIVER: NEOPLASTIC NODULE OR HEPATOCELLULAR CARCINOMA, LUNG: ALVEOLAR/BRONCHIOLAR A): active; positive | carcinogen call (Species: RAT, Strain/Sex: F344/MALE, Route: ORAL, Dose: 0, 70, 150, 300 PPM IN DRINKING WATER 7 D/WK FOR 104 WK (STUDY DURATION: 104 WK), Dose: 0, 70, 150, 300 PPM IN DRINKING WATER 7 D/WK FOR 104 WK (STUDY DURATION: 104 WK), Tumor Site: Type of Lesion: LIVER: NEOPLASTIC NODULE OR HEPATOCELLULAR CARCINOMA, SKIN: BASAL CELL ADENOMA, BASAL CELL CARCINOMA, KERATOACANTHOMA, S): active; positive

O=[N+]([O-])C1=Cc2cccc3cccc(c23)O1
carcinogen call (Species: RAT, Strain/Sex: WISTAR/MALE, Route: SUBCUTANEOUS, Dose: 0, 0.5 MG IN DMSO 1/WK FOR DURATION OF STUDY (TOTAL DOSE: 0; 19.5 MG) (STUDY DURATION: 271 D), Dose: 0, 0.5 MG IN DMSO 1/WK FOR DURATION OF STUDY (TOTAL DOSE: 0; 19.5 MG) (STUDY DURATION: 271 D), Tumor Site: Type of Lesion: INJECTION SITE: FIBROSARCOMA): active; positive

Brc1cc(Br)c2cccnc2c1
carcinogen call (Species: RAT, Strain/Sex: F344/FEMALE, Route: ORAL, Dose: 0.1% IN DIET FOR 2 YR): inactive; negative

Cc1ccc(N(CC2=NCCN2)c2cccc(O)c2)cc1
carcinogen call (Species: RAT, Strain/Sex: CRL:CD BR/MALE, FEMALE (65/GROUP), Route: ORAL (GAVAGE), Dose: 10, 50, 150 MG/KG DAILY IN DISTILLED WATER (STUDY DURATION: 101 WK), Dose: 10, 50, 150 MG/KG DAILY IN DISTILLED WATER (STUDY DURATION: 101 WK), Tumor Site: Type of Lesion: BROWN ADIPOSE TISSUE: HIBERNOMA): active; positive | carcinogen call (Species: RAT, Strain/Sex: CRL:CD BR/MALE, FEMALE (65/GROUP), Route: ORAL (GAVAGE), Dose: 10, 50, 150 MG/KG DAILY IN DISTILLED WATER (STUDY DURATION: 101 WK), Dose: 10, 50, 150 MG/KG DAILY IN DISTILLED WATER (STUDY DURATION: 101 WK), Tumor Site: Type of Lesion: PITUITARY: ADENOMA): active; positive

ClC1=C(Cl)C(Cl)(Cl)C(Cl)=C1Cl
carcinogen call (Species: MOUSE, Strain/Sex: B6C3F1/FEMALE, Route: INHALATION, Dose: 0, 0.01, 0.05, 0.2 PPM IN AIR 6 HR/D 5 D/WK FOR 104 WK (STUDY DURATION: 104 WK), Dose: 0, 0.01, 0.05, 0.2 PPM IN AIR 6 HR/D 5 D/WK FOR 104 WK (STUDY DURATION: 104 WK)): inactive; negative | carcinogen call (Species: MOUSE, Strain/Sex: B6C3F1/MALE, Route: INHALATION, Dose: 0, 0.01, 0.05, 0.2 PPM IN AIR 6 HR/D 5 D/WK FOR 104 WK (STUDY DURATION: 104 WK), Dose: 0, 0.01, 0.05, 0.2 PPM IN AIR 6 HR/D 5 D/WK FOR 104 WK (STUDY DURATION: 104 WK)): inactive; negative | carcinogen call (Species: RAT, Strain/Sex: F344/FEMALE, Route: INHALATION, Dose: 0, 0.01, 0.05, 0.2 PPM IN AIR 6 HR/D 5 D/WK FOR 104 WK (STUDY DURATION: 104 WK), Dose: 0, 0.01, 0.05, 0.2 PPM IN AIR 6 HR/D 5 D/WK FOR 104 WK (STUDY DURATION: 104 WK)): inactive; negative | carcinogen call (Species: RAT, Strain/Sex: F344/MALE, Route: INHALATION, Dose: 0, 0.01, 0.05, 0.2 PPM IN AIR 6 HR/D 5 D/WK FOR 104 WK (STUDY DURATION: 104 WK), Dose: 0, 0.01, 0.05, 0.2 PPM IN AIR 6 HR/D 5 D/WK FOR 104 WK (STUDY DURATION: 104 WK)): inactive; negative

Cc1c(C)c2c3c(ccc2c2ccccc12)[C@@H](O)[C@H](O)[C@@H]1O[C@H]31
carcinogen call (Species: MOUSE, Strain/Sex: ICR/FEMALE, Route: INTRAPERITONEAL, Dose: 0, 8 NMOL IN 5 µL DMSO TO PUPS ON D 1/OF LIFE THEN 16 NMOL IN 10 µL ON D 8 AND 3 NMOL IN 20 µL D 15 (STUDY DURATION: 35, Tumor Site: Type of Lesion: LUNG: TUMOR): active; positive | carcinogen call (Species: MOUSE, Strain/Sex: ICR/MALE, Route: INTRAPERITONEAL, Dose: 0, 8 NMOL IN 5 µL DMSO TO PUPS ON D 1/OF LIFE THEN 16 NMOL IN 10 µL ON D 8 AND 3 NMOL IN 20 µL ON D 15 (STUDY DURATION:, Tumor Site: Type of Lesion: LUNG: TUMOR, LIVER: TUMOR): active; positive

CCCN(CCC)C(=O)SCC
carcinogen call (Species: Mouse, Strain/Sex: Crl:CD-1/Female (60/Group), Route: Oral, Dose: 0, 200, 600, 1800 ppm in diet for 73 wks, study duration 73 wks, Dose: 0, 200, 600, 1800 ppm in diet for 73 wks, study duration 73 wks): inactive; negative | carcinogen call (Species: Mouse, Strain/Sex: Crl:CD-1/Male (60/Group), Route: Oral, Dose: 0, 200, 600, 1800 ppm in diet for 73 wks, study duration 73 wks, Dose: 0, 200, 600, 1800 ppm in diet for 73 wks, study duration 73 wks): inactive; negative | carcinogen call (Species: Rat, Strain/Sex: Crl:CD (SD) BR/Female (90/Group), Route: Oral, Dose: 0, 9, 18, 36, 72 mg/kg/day in diet for 2 yr, study duration 2 yr, Dose: 0, 9, 18, 36, 72 mg/kg/day in diet for 2 yr, study duration 2 yr): inactive; negative | carcinogen call (Species: Rat, Strain/Sex: Crl:CD (SD) BR/Male (90/Group), Route: Oral, Dose: 0, 9, 18, 36, 72 mg/kg/day in diet for 2 yr, study duration 2 yr, Dose: 0, 9, 18, 36, 72 mg/kg/day in diet for 2 yr, study duration 2 yr): inactive; negative
